From ChEMBL document CHEMBL1201862, “PubChem BioAssay data set” (2004)
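These data come from cells grown in 96-well plates and exposed to compound for 48 hours at five concentrations. The concentration for 50% growth inhibition is given as GI50.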 Active and inactive are the calls of the source. Rule as the data show it: active = GI50 up to about 1.1 µM and inactive = higher.

What was measured:
Assay in all cases: NCI anticancer screen, dose series, 48 h
[1] = test system: M14
[2] = test system: RXF 393
[3] = test system: OVCAR-8
[4] = test system: SK-MEL-5
[5] = test system: A498
[6] = test system: 786-0
[7] = test system: A549
[8] = test system: KM12
[9] = test system: SK-OV-3
[10] = test system: Malme-3M
[11] = test system: HCT-116
[12] = test system: NCI-H23
[13] = test system: NCI-H226
[14] = test system: DMS-114
[15] = test system: HOP-92
[16] = test system: HOP-62
[17] = test system: IGROV-1
[18] = test system: BT-549
[19] = test system: SR
[20] = test system: MDA-N

Structure (SMILES) | GI50 [1] | GI50 [2] | GI50 [3] | GI50 [4] | GI50 [5] | GI50 [6] | GI50 [7] | GI50 [8] | GI50 [9] | GI50 [10] | GI50 [11] | GI50 [12] | GI50 [13] | GI50 [14] | GI50 [15] | GI50 [16] | GI50 [17] | GI50 [18] | GI50 [19] | GI50 [20]
Cc1cccc(C)c1NC(=O)CCCC(=O)C1CCC/C1=N\NC(=O)C(=O)NN (stereo unspecified) | > 100 µM (inactive) | 24.5 µM (inactive) | > 100 µM (inactive) | > 100 µM (inactive) | > 100 µM (inactive) | > 100 µM (inactive) | > 100 µM (inactive) | > 100 µM (inactive) | > 100 µM (inactive) | > 100 µM (inactive) | > 100 µM (inactive) | > 100 µM (inactive) | > 100 µM (inactive) | > 100 µM (inactive) |  |  |  |  |  | 
O=C1CCSC2=C1SCc1sccc12 | > 100 µM (inactive) | > 100 µM (inactive) | > 100 µM (inactive) | > 100 µM (inactive) |  | > 100 µM (inactive) | > 100 µM (inactive) | > 100 µM (inactive) | > 100 µM (inactive) | > 100 µM (inactive) |  | > 100 µM (inactive) |  | > 100 µM (inactive) | > 100 µM (inactive) | > 100 µM (inactive) | > 100 µM (inactive) |  |  | 
O=[N+]([O-])c1ccc(-c2nc3ccccc3o2)cc1 | > 100 µM (inactive) | > 100 µM (inactive) | > 100 µM (inactive) | > 100 µM (inactive) | > 100 µM (inactive) | > 100 µM (inactive) | > 100 µM (inactive) | > 100 µM (inactive) | > 100 µM (inactive) | > 100 µM (inactive) | > 100 µM (inactive) | > 100 µM (inactive) | > 100 µM (inactive) |  | > 100 µM (inactive) | 69 µM (inactive) | > 100 µM (inactive) | > 100 µM (inactive) | > 100 µM (inactive) | > 100 µM (inactive)
CCOc1cc2c(cnc3c4cc(OC)c(OC)cc4ccc23)cc1OC | > 100 µM (inactive) |  | > 100 µM (inactive) | > 100 µM (inactive) | > 100 µM (inactive) | > 100 µM (inactive) | > 100 µM (inactive) | > 100 µM (inactive) | > 100 µM (inactive) | > 100 µM (inactive) | > 100 µM (inactive) | > 100 µM (inactive) |  | > 100 µM (inactive) |  | > 100 µM (inactive) | > 100 µM (inactive) |  |  | 
C=CC(Br)(CBr)CCC(Br)C(C)C (stereo unspecified) | 4.16 µM (inactive) | 5.89 µM (inactive) | 2.44 µM (inactive) | 5.24 µM (inactive) | 18.7 µM (inactive) | 1.58 µM (inactive) | 14.1 µM (inactive) | 2.18 µM (inactive) | 16.6 µM (inactive) | 13.5 µM (inactive) | 5.57 µM (inactive) | 6.82 µM (inactive) | 16.6 µM (inactive) |  | 10.7 µM (inactive) | 3.18 µM (inactive) | 3.46 µM (inactive) | 3.14 µM (inactive) | 1.62 µM (inactive) | 2.07 µM (inactive)
Cc1ccc(NC(=O)/C(Cc2cc(=O)oc3cc(O)ccc23)=N\NC(=O)C[N+](C)(C)C)cc1C | > 100 µM (inactive) | 66.2 µM (inactive) | > 100 µM (inactive) | > 100 µM (inactive) | > 100 µM (inactive) | > 100 µM (inactive) | > 100 µM (inactive) | > 100 µM (inactive) | > 100 µM (inactive) | > 100 µM (inactive) | > 100 µM (inactive) | > 100 µM (inactive) | > 100 µM (inactive) |  | > 100 µM (inactive) | > 100 µM (inactive) | > 100 µM (inactive) | > 100 µM (inactive) | > 100 µM (inactive) | > 100 µM (inactive)
O=C1N/C(=N/N=C\C(O)C(O)C(O)C(O)CO)N/C1=C/c1ccc(Cl)cc1 (stereo unspecified) | > 100 µM (inactive) | > 100 µM (inactive) | > 100 µM (inactive) | > 100 µM (inactive) | > 100 µM (inactive) | > 100 µM (inactive) | > 100 µM (inactive) | > 100 µM (inactive) | > 100 µM (inactive) | 97.3 µM (inactive) | > 100 µM (inactive) | > 100 µM (inactive) | 74.8 µM (inactive) |  | > 100 µM (inactive) | > 100 µM (inactive) | > 100 µM (inactive) | > 100 µM (inactive) | 47.2 µM (inactive) | > 100 µM (inactive)
CC(=O)Nc1cc(CN2CCCCC2)c(O)c2ncccc12 | 15.4 µM (inactive) | 4.29 µM (inactive) | 29.6 µM (inactive) | 24.3 µM (inactive) | 65.9 µM (inactive) | 8.04 µM (inactive) | 32.9 µM (inactive) | 23.9 µM (inactive) | 36.5 µM (inactive) | 22.9 µM (inactive) | 20.9 µM (inactive) | 40.7 µM (inactive) | 31.7 µM (inactive) |  | 49.5 µM (inactive) | 27.2 µM (inactive) | 28.4 µM (inactive) | 77.4 µM (inactive) | 8.75 µM (inactive) | 42 µM (inactive)
c1ccc2sc(C3(N4CCC5(CC4)OCCO5)CCCCC3)cc2c1 | 61.1 µM (inactive) | > 100 µM (inactive) | > 100 µM (inactive) | 50.5 µM (inactive) | > 100 µM (inactive) | 99.1 µM (inactive) | > 100 µM (inactive) | 56.4 µM (inactive) | > 100 µM (inactive) | > 100 µM (inactive) | 58.1 µM (inactive) | > 100 µM (inactive) | 18.6 µM (inactive) |  | 25.8 µM (inactive) | > 100 µM (inactive) | > 100 µM (inactive) | > 100 µM (inactive) | 7.89 µM (inactive) | 80.4 µM (inactive)
CC(=O)Nc1ccc(/C=C2\N=C(c3ccccc3)OC2=O)cc1 | > 100 µM (inactive) | 82.8 µM (inactive) | 6.32 µM (inactive) | 57.8 µM (inactive) |  | > 100 µM (inactive) | > 100 µM (inactive) | 68.7 µM (inactive) | > 100 µM (inactive) | 6.1 µM (inactive) | 79.4 µM (inactive) | > 100 µM (inactive) | > 100 µM (inactive) | 1 µM (active) | 62.5 µM (inactive) | > 100 µM (inactive) | > 31.6 µM (inactive) |  |  | 
C[C@H]1O[C@@H](O[C@H]2[C@@H](O)C[C@H](O[C@H]3[C@@H](O)C[C@H](O[C@H]4CC[C@@]5(C)[C@H](CC[C@@H]6[C@@H]5CC[C@]5(C)[C@@H](C7=CC(=O)OC7)[C@@H](O)C[C@]65O)C4)O[C@@H]3C)O[C@@H]2C)C[C@H](O)[C@@H]1O [GITOXIN] | 0.475 µM (active) | 0.0991 µM (active) | 0.226 µM (active) | 0.118 µM (active) | 0.237 µM (active) | 0.151 µM (active) | 0.0719 µM (active) | 0.658 µM (active) | 0.39 µM (active) | 0.206 µM (active) | 0.127 µM (active) | 0.0869 µM (active) | 0.855 µM (active) |  | 0.402 µM (active) | 0.566 µM (active) | 0.416 µM (active) | 0.116 µM (active) | 0.287 µM (active) | 0.266 µM (active)
